In ChEMBL document CHEMBL3217547, “3-Substituted coumarins as dual inhibitors of AChE and MAO for the treatment of Alzheimer's disease” (Medchemcomm, 2012):
Calls of active or inactive are those of the source. No cut-off for these calls is given here.

Key:
[1] = molecular target: T1, Amine oxidase [flavin-containing] A (Homo sapiens, UniProt P21397); experiment: Inhibition of recombinant human MAO-A assessed as production of hydrogen peroxide from p-tyramine up to 100 uM after 15 mins by Amplex Red assay; conditions: 0.25 h
T1 sequence (P21397 whole entry): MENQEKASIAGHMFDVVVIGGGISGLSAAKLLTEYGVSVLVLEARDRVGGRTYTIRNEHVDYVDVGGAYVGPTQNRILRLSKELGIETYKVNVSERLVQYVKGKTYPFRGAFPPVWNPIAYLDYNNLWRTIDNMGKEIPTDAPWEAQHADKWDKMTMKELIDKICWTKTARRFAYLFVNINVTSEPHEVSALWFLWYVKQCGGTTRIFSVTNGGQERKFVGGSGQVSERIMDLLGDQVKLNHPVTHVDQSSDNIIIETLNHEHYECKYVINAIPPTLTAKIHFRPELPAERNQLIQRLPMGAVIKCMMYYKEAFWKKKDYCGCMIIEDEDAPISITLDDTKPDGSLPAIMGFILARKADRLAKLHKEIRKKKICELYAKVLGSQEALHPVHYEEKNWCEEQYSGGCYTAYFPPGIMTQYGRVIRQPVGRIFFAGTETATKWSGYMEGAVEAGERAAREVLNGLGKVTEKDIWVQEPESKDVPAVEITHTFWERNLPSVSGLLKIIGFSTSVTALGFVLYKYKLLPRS

Acetylcholinesterase [2] = molecular target: T2, Acetylcholinesterase (Homo sapiens, UniProt P22303); experiment: Inhibition of recombinant human AChE expressed in HEK293 cells using acetylthiocholine iodide as substrate at 100 uM preincubated for 5 mins before substrate addition measured after 10 mins by Ellman's method
[3] = molecular target: T3, Amine oxidase [flavin-containing] B (Homo sapiens, UniProt P27338)
T3 sequence (P27338 whole entry): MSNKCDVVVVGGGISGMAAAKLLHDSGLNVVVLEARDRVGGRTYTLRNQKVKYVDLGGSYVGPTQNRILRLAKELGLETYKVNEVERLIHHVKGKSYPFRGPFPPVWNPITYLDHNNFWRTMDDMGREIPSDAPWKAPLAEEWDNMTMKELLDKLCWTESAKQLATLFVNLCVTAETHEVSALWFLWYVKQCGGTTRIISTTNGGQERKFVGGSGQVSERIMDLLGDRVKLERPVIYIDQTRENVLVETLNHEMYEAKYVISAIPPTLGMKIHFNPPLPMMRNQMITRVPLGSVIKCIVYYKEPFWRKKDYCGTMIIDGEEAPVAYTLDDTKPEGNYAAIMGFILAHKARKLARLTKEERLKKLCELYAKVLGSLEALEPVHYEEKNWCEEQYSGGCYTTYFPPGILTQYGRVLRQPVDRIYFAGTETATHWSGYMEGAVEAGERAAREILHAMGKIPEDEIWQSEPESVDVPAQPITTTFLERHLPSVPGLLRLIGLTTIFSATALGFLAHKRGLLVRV
Description: Inhibition of recombinant human MAO-B assessed as production of hydrogen peroxide from p-tyramine after 15 mins by Amplex Red assay

[4] = molecular target: T3, Amine oxidase [flavin-containing] B; experiment: Inhibition of recombinant human MAO-B assessed as production of hydrogen peroxide from p-tyramine at 100 uM after 15 mins by Amplex Red assay; conditions: 0.25 h
[5] = molecular target: T1, Amine oxidase [flavin-containing] A; experiment: Inhibition of recombinant human MAO-A assessed as production of hydrogen peroxide from p-tyramine after 15 mins by Amplex Red assay
[6] = molecular target: T3, Amine oxidase [flavin-containing] B; experiment: Inhibition of recombinant human MAO-B assessed as production of hydrogen peroxide from p-tyramine up to 100 uM after 15 mins by Amplex Red assay; conditions: 0.25 h
Acetylcholinesterase [7] = molecular target: T2, Acetylcholinesterase; experiment: Inhibition of recombinant human AChE expressed in HEK293 cells using acetylthiocholine iodide as substrate preincubated for 5 mins before substrate addition measured after 10 mins by Ellman's method

T2 sequence (P22303 whole entry): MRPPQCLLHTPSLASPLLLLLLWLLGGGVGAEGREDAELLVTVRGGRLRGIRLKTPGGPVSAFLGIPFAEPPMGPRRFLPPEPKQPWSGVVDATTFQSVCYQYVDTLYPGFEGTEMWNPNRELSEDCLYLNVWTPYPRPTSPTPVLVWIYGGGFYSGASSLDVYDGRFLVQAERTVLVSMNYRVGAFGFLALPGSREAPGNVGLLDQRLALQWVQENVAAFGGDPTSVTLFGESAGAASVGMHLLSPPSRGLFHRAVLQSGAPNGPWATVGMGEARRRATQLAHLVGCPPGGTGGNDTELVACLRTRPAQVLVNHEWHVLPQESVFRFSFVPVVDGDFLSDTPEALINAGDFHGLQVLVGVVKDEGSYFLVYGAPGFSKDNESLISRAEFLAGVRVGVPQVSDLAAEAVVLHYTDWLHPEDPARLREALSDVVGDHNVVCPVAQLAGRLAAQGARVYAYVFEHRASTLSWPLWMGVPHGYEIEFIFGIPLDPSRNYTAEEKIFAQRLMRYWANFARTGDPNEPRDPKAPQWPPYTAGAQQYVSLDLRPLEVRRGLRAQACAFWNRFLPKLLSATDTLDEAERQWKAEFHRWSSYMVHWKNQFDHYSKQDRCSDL

Row | Structure (SMILES) | inhibition (INH) [1] | inhibition (Acetylcholinesterase [2]) | IC50 [3] [µM] | inhibition at 100 µM [4] [%] | IC50 [5] [µM] | inhibition (INH) [6] | IC50 (Acetylcholinesterase [7]) [µM]
1 | Cc1ccc(-c2cc3cc(C)ccc3oc2=O)cc1 | Not Active | inactive |  |  |  |  | 
2 | COc1ccc(C(=O)Nc2cc3ccccc3oc2=O)cc1OC | Not Active | inactive | 58.4 |  |  |  | 
3 | CC(=O)Nc1cc2ccccc2oc1=O |  | inactive |  | 40 | 38.9 |  | 
4 | O=C(CCl)Nc1cc2ccccc2oc1=O | Not Active | inactive |  |  |  | Not Active | 
5 | O=c1oc2ccccc2cc1-c1ccccc1 | Not Active | inactive |  |  |  |  | 
6 | COc1ccc(C(=O)Nc2cc3ccccc3oc2=O)cc1 | Not Active |  | 30.5 |  |  |  | 69.5
7 | O=C(Nc1cc2ccccc2oc1=O)c1ccc([N+](=O)[O-])cc1 | Not Active |  |  |  |  | Not Active | 12.9
8 | O=C(Nc1cc2ccccc2oc1=O)c1ccc(Cl)c(Cl)c1 | Not Active |  | 5.95 |  |  |  | 15
9 | O=C(Nc1cc2ccccc2oc1=O)c1ccccc1 | Not Active | inactive | 0.76 |  |  |  | 
10 | COc1cc(C(=O)Nc2cc3ccccc3oc2=O)cc(OC)c1OC | Not Active | inactive | 72.6 |  |  |  | 
11 | Cc1ccc(C(=O)Nc2cc3ccccc3oc2=O)cc1 | Not Active |  | 7.96 |  |  |  | 18.4
12 | Cc1ccc2oc(=O)c(-c3ccccc3)cc2c1 | Not Active | inactive |  |  |  |  | 
13 | O=C(Nc1cc2ccccc2oc1=O)c1ccc(Cl)cc1 | Not Active |  | 1.95 |  |  |  | 18.7
14 | Cc1ccc(C(=O)Nc2cc3cc(C)ccc3oc2=O)cc1 |  |  | 0.17 |  | 46 |  | 41.4
15 | O=C(CBr)Nc1cc2ccccc2oc1=O | Not Active | inactive |  |  |  | Not Active | 
16 | O=C(Nc1cc2ccccc2oc1=O)C1CCCCC1 | Not Active | inactive | 50 |  |  |  | 
